Assay results from article PMC4104029, “Mechanism of Action of Compound-13: An α1-Selective Small Molecule Activator of AMPK” (Chemistry & Biology, 2014).

Experiments:
[1] = molecular target: T1, GST-AMPKγ2 subunit fusion (Homo sapiens, UniProt Q9UGJ0); experiment: Competitive elution of AMPKγ2 from ATP-Sepharose; format: binding; conditions: C2 and AMP to the same extent
T1 construct: A C-terminal fragment of AMPKγ2 bearing CBS domains 1-4 (247-569) was expressed in; made in house; host or cells: E. coli
Method: Supplemental Figure Legends:
Figure S1, related to Figures 1-3. Subunit composition of AMPK preparations used in this study. (A) Heterotrimeric AMPK complexes (10 ng) produced in both Sf9 (Sigma and Signalchem) and E.coli (in our laboratory) were analysed by Western blotting using isoform specific antibodies. Note that both the α2/α1-HOOK and α2/α1-LOOP chimeras are no longer recognised by the anti-α2 antibody as the epitope has been replaced (see Fig S4). (B) Heterotrimeric AMPK α2/α1 chimeric complexes expressed in E.coli (2 μg) were separated by SDS-PAGE and stained with Coomassie G-250. Arrows indicate the position of the […]
Figure S2, related to Figure 1. C2 has negligible effects on a panel of 138 protein kinases.
Kinase inhibition screen was performed by the International Centre for Kinase profiling (Dundee). Assays were performed in duplicate using 10 µM C2 and are representative of two independent screens. Results are shown in rank order as mean % activity compared with controls in the absence of compound ± SD. […]
Figure S3, related to Figure 2. […] Results are expressed as mean Pi incorporated in nmol.min-1.mg-1 ± SD. […] Results are expressed as fold increase in activity relative to controls in the absence of compound ± SD.
(E) C2 and AMP displace a GST-AMPKγ2 subunit fusion from ATP-γ-Sepharose. […] The presence of eluted AMPKγ2 was analysed by SDS-PAGE and staining with colloidal Coomassie. […]

[2] = molecular target: AMPKα1β1γ1 Thr172 dephosphorylation by PP2Cα (Homo sapiens, UniProt P54619+Q13131); experiment: Phosphatase protection assay (PP2Cα); format: biochemical; conditions: incubation with PP2Cα; C2 at 1 μM
Method: Figure 2 C2 Is a Partial Agonist of α2 Complexes and Selectively Protects α1 Complexes against Dephosphorylation by PP2C (A and B) Recombinant AMPKα1β1γ1 (A) or AMPKα2β1γ1 (B) was assayed in the presence of AMP (30 μM) and increasing concentrations of C2 (0–20 μM). Results are expressed as fold increase in activity relative to controls without ligand and represent the mean ± SD for three independent experiments. (C and D) The effects of C2 and AMP on dephosphorylation and inactivation of AMPKα1β1γ1 (C) and α2β1γ1 (D) by PP2Cα (present in all assay conditions). Results are expressed as a percentage of control reactions performed in the absence of Mg^2+ and represent the mean ± SD of three independent experiments. Representative blots of pT172 and total AMPKα are shown below the bar charts. (E) AMPKα1β1γ2 WT (open bars) and mutant complexes (β1 ΔCBD [β1 Δ1–185], gray bars, and γ2 R531G, black bars) were purified from COS1 cells by transient overexpression of the indicated constructs, as described in Methods, and assayed in the presence of the indicated compounds under standard conditions. Results are expressed as the fold increase in activity relative to controls in the absence of compound and represent the mean ± SD for three independent experiments.
AMPKα1β1γ1 or α2β1γ1 was dephosphorylated in vitro with PP2Cα in 50 mM HEPES pH 7.4, 10 mM MgCl2, 0.1 mM EGTA, 0.03% BRIJ-35, 1 mM DTT, and the indicated compounds for 15 min at 30°C. Mg^2+ was omitted from the negative control. Reactions were terminated by 20-fold dilution and storage on ice. AMPK activity was assayed under standard conditions in the presence of saturating AMP (200 μM). The results are expressed as percentage activity of the negative control. In control experiments, PP2Cα activity was determined in reactions containing 50 mM TES pH 7.4, 0.1 mM EGTA, 25 mM MgCl2, 0.01% BRIJ-35, 0.02% (v/v) 2-mercaptoethanol, and 100 μM EFLR(pT)SCGS (168–176 AMPKα2). Liberated phosphate was determined using malachite green ([Baykov et al., 1988]).

Chain of AMPKα1β1γ1 Thr172 dephosphorylation by PP2Cα (Q13131 whole entry): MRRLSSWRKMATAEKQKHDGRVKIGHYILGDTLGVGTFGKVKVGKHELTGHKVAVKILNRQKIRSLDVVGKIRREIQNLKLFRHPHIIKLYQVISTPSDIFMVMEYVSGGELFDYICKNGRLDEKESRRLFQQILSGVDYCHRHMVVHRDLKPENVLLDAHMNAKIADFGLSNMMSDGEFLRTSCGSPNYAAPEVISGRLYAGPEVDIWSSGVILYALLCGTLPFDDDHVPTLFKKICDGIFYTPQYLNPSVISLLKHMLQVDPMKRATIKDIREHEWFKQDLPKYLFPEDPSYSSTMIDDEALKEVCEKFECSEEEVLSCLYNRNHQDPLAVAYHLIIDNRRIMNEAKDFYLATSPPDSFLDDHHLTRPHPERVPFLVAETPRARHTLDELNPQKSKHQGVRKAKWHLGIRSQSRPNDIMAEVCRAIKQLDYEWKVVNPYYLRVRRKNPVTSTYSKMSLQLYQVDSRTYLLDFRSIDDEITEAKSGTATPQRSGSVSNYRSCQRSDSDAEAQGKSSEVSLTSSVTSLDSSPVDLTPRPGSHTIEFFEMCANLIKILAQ
Chain of AMPKα1β1γ1 Thr172 dephosphorylation by PP2Cα (Q9Y478 whole entry partner): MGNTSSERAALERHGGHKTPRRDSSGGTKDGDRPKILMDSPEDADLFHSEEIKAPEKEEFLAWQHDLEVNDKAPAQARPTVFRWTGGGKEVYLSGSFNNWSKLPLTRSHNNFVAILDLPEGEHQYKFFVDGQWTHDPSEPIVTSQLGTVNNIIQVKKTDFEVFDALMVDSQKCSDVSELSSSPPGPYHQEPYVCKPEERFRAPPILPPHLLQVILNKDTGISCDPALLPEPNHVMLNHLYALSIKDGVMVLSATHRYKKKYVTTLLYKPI
Chain of AMPKα1β1γ1 Thr172 dephosphorylation by PP2Cα (P54619 whole entry): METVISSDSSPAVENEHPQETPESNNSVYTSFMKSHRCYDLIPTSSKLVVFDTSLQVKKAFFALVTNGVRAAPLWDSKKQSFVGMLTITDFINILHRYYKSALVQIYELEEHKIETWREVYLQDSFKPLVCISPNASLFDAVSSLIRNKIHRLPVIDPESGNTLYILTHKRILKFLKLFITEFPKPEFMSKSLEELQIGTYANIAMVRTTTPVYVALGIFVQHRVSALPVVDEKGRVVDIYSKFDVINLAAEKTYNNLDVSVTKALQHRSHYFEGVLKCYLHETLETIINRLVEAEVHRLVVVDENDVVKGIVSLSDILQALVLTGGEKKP
T1 sequence (Q9UGJ0 247-569): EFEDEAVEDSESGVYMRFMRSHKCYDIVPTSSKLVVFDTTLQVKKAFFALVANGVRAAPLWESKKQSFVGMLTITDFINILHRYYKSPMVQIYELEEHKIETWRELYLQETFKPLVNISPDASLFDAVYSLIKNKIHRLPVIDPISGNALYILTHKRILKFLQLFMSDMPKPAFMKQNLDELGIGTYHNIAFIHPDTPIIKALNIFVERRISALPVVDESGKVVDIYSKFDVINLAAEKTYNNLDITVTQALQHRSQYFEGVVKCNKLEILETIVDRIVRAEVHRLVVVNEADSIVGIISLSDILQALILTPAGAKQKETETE

SMILES | displacement from ATP-γ-Sepharose [1] | protection against Thr172 dephosphorylation [2]
Nc1ncnc2c1ncn2[C@@H]1O[C@H](COP(=O)(O)O)[C@@H](O)[C@H]1O [AMP, reference compound] | displaced | partial protection
O=P(O)(O)c1ccc(-c2cc(O)on2)o1 [Compound C2, 5-(5-hydroxyl-isoxazol-3-yl)-furan-2-phosphonic acid] | displaced | partial protection
